Experimental data taken from patent US20140315809A1, “CALCIMIMETICS AND METHODS FOR THEIR USE” (KAI PHARMACEUTICALS INC., priority 2011, published 2014).
Like-named read-outs stand apart in the source and are kept apart here. One block for each compound: values may come before it.

Legend:
[1] = system: patients diagnosed with CKD-BMD and SHPT receiving hemodialysis; experiment: Single-dose clinical study: corrected calcium; format: in vivo, human; conditions: single IV bolus 5-60 mg
Procedure: (§1) A clinical study was performed to assess the safety and tolerability of rising single doses of Ac-c(C)arrrar-NH2 (SEQ ID NO:3), administered by IV bolus to patients diagnosed with CKD-BMD and SHPT, and who were receiving hemodialysis. Data were generated to measure changes in patient serum intact PTH (iPTH) and serum calcium as well as bioavailability of the single dose of Ac-c(C)arrrar-NH2 (SEQ ID NO:3).
A double-blind, randomized, placebo-controlled, multicenter study in subjects receiving thrice-weekly hemodialysis (HD) was designed and carried out. The major inclusion criteria included hemodialysis for at least 3 months prior to the start of the study, a serum iPTH level greater than 300 pg/mL, a serum cCa (corrected calcium) level greater than or equal to 9.0 mg/dL and receiving of stable doses of active vitamin D or analogs, phosphate binders, and calcium supplements. […]
Serum iPTH levels were determined using the electrochemiluminescence immunoassay (ECLIA) on the Roche Elecsys® analyzer. Calcium levels were adjusted for albumin <4 g/dL with the following equation: cCa=[measured Ca in mg/dL]+[4-(albumin in g/dL)]×0.8
The effects of Ac-c(C)arrrar-NH2 (SEQ ID NO:3) administration on serum iPTH and corrected calcium levels was also determined in this study. […] Blood from each subject was then analyzed to determine levels of iPTH and corrected calcium. […]

[2] = Single-dose clinical study: pharmacokinetics, noncompartmental analysis; format: in vivo, human; conditions: for clearance / AUC / Cmax / half-life / Vd: human; for Vd: read-out: Vss
Procedure: as §1
(§2) A double-blind, randomized, placebo-controlled, multicenter study in subjects receiving thrice-weekly hemodialysis (HD) was designed and carried out. The major inclusion criteria included hemodialysis for at least 3 months prior to the start of the study, a serum iPTH level greater than 300 pg/mL, a serum cCa (corrected calcium) level greater than or equal to 9.0 mg/dL and receiving of stable doses of active vitamin D or analogs, phosphate binders, and calcium supplements.
(§3) Cohorts 1, 2 and 3 were conducted with a two-period crossover design. Each cohort enrolled 4 subjects randomized 1:1 to Ac-c(C)arrrar-NH2 (SEQ ID NO:3) followed by placebo or placebo followed by Ac-c(C)arrrar-NH2 (SEQ ID NO:3). The dose levels of Ac-c(C)arrrar-NH2 (SEQ ID NO:3) for Cohorts 1-3 were 5, 10 and 20 mg. Cohort 4 enrolled 8 subjects who were randomized 1:1 to 40 mg Ac-c(C)arrrar-NH2 (SEQ ID NO:3) or placebo in a parallel group. Cohort 5 enrolled 8 subjects were randomized 1:1 to 60 mg Ac-c(C)arrrar-NH2 (SEQ ID NO:3) or placebo in a parallel group.
(§4) Ac-c(C)arrrar-NH2 (SEQ ID NO:3) or placebo was administered by IV bolus injection 2-4 hours following completion of HD.
Pharmacokinetic (PK) analysis was performed on samples obtained from the treated subjects to determine bioavailability of the administered Ac-c(C)arrrar-NH2 (SEQ ID NO:3). […] Clearance (CL) and volume of distribution as steady state (Vss) values appear to be dose-independent over the range evaluation. Total clearance of Ac-c(C)arrrar-NH2 (SEQ ID NO:3) was approximately about 2 L/h. Ac-c(C)arrrar-NH2 (SEQ ID NO:3) was readily cleared from the central compartment by hemodialysis.

[3] = system: patients diagnosed with CKD-BMD and SHPT receiving hemodialysis; experiment: Single-dose clinical study: adverse events; format: in vivo, human; conditions: for Adverse Event: Anemia / Adverse Event: Congestive heart failure / Adverse Event: Decreased ionized calcium / Adverse Event: Gastro-esophageal reflux / Adverse Event: Injection site pruritis / Adverse Event: Paresthesias / Adverse Event: Pneumonia / Adverse Event: Toothache / Number of subjects with ≧1 AE: n (%) of subjects
Procedure: as §1, §2, §3, §4
Adverse events were captured through 7 days after study drug administration.
Adverse events experienced by each of the subjects was recorded for 7 days after administration of the Ac-c(C)arrrar-NH2 (SEQ ID NO:3) or placebo. A single serious adverse event occurred in one subject who had been treated with placebo in the 10 mg dose cohort. The subject discontinued form the study prior to receiving Ac-c(C)arrrar-NH2 (SEQ ID NO:3). There were no reports of nausea, vomiting or diarrhea.

[4] = system: 5/6 nephrectomy (Nx) rat model of renal insufficiency; experiment: PTH suppression in 5/6 Nx rats, daily dosing for 28 days; format: in vivo; conditions: daily 28 days, Ac-c(C)arrrar-NH2 1 mg/kg IV, cinacalcet 10 mg/kg PO
Procedure: The therapeutic efficacy of Ac-c(C)arrrar-NH2 (SEQ ID NO:3) was assessed using the 5/6 nephrectomy (Nx) rat model of renal insufficiency. The 5/6 Nx male rats were obtained from Charles River Laboratories (Wilmington, Mass.). These rats have undergone surgical removal of one kidney and ⅔ of the other kidney and were fed a high-phosphate diet. All experimental procedures with animals were performed according to IACUC guidelines. Statistical analysis was performed using one-way ANOVA with Bonferroni post test. All p-values are nominal.
Tail vein blood samples were taken periodically for measurement of PTH. PTH was measured using the Immutopics BioActive Intact ELISA (Cat #60-2700; Immutopics, San Clemente, Calif.).

[5] = plasma, Cohort 1, 5 mg single IV bolus, hemodialysis subjects, geometric mean
[6] = plasma, Cohort 2, 10 mg single IV bolus, hemodialysis subjects, geometric mean
[7] = plasma, Cohort 3, 20 mg single IV bolus, hemodialysis subjects, geometric mean
[8] = plasma, Cohort 4, 40 mg single IV bolus, hemodialysis subjects, geometric mean
[9] = plasma, Cohort 5, 60 mg single IV bolus, hemodialysis subjects, geometric mean

corrected calcium level, lowest in any subject at any time during the study [1]: ≥ 7.5 mg/dL | Clearance (CL) and volume of distribution (Vss) relative to dose ([2]; 5-60 mg single IV bolus): dose-independent | clearance ([2]; in vivo, intravenous, estimated, hemodialysis subjects, read-out: Hemodialysis clearance (converted)): ~550 mL/min | AUC [2, 5]: 1080 ng·h/mL | Cmax [2, 5]: 133 ng/mL | clearance ([2]; plasma, Cohort 1, 5 mg single IV bolus, hemodialysis subjects, geometric mean, read-out: CL (converted)): 28 mL/min | half-life ([2]; plasma, Cohort 1, 5 mg single IV bolus, hemodialysis subjects, geometric mean, read-out: T½ (converted)): 121 h | Vd [2, 5]: 278 L | AUC [2, 6]: 2770 ng·h/mL | Cmax [2, 6]: 257 ng/mL | clearance ([2]; plasma, Cohort 2, 10 mg single IV bolus, hemodialysis subjects, geometric mean, read-out: CL (converted)): 31.8 mL/min | half-life ([2]; plasma, Cohort 2, 10 mg single IV bolus, hemodialysis subjects, geometric mean, read-out: T½ (converted)): 81.7 h | Vd [2, 6]: 203 L | AUC [2, 7]: 4680 ng·h/mL | Cmax [2, 7]: 479 ng/mL | clearance ([2]; plasma, Cohort 3, 20 mg single IV bolus, hemodialysis subjects, geometric mean, read-out: CL (converted)): 20.2 mL/min | half-life ([2]; plasma, Cohort 3, 20 mg single IV bolus, hemodialysis subjects, geometric mean, read-out: T½ (converted)): 175 h | Vd [2, 7]: 293 L | AUC [2, 8]: 8890 ng·h/mL | Cmax [2, 8]: 686 ng/mL | AUC [2, 9]: 14800 ng·h/mL | Cmax [2, 9]: 1080 ng/mL | clearance ([2]; plasma, Cohort 5, 60 mg single IV bolus, hemodialysis subjects, geometric mean, read-out: CL (converted)): 24.2 mL/min | half-life ([2]; plasma, Cohort 5, 60 mg single IV bolus, hemodialysis subjects, geometric mean, read-out: T½ (converted)): 115 h | Vd [2, 9]: 232 L | half-life ([2]; plasma, across the dose range 5-60 mg single IV bolus, read-out: geometric mean terminal elimination half-life): 81.7 to 175 h | clearance ([2]; plasma, single IV bolus, hemodialysis subjects, read-out: Total clearance (converted)): ~33.3 mL/min
SMILES: CC(=O)N[C@H](CSSC[C@H](N)C(=O)O)C(=O)N[C@H](C)C(=O)N[C@H](CCCNC(=N)N)C(=O)N[C@H](CCCNC(=N)N)C(=O)N[C@H](CCCNC(=N)N)C(=O)N[C@H](C)C(=O)N[C@H](CCCNC(=N)N)C(N)=O [Ac-c(C)arrrar-NH2]
total plasma exposure (Cmax and AUCall) relative to dose ([2]; 5-60 mg single IV bolus): reasonably proportional to the administered dose | Adverse Event: Anemia ([3]; 5 mg dose cohort): 0 (0%) | Adverse Event: Congestive heart failure ([3]; 5 mg dose cohort): 0 (0%) | Adverse Event: Decreased ionized calcium ([3]; 5 mg dose cohort): 0 (0%) | Adverse Event: Gastro-esophageal reflux ([3]; 5 mg dose cohort): 1 (25%) | Adverse Event: Injection site pruritis ([3]; 5 mg dose cohort): 0 (0%) | Adverse Event: Paresthesias ([3]; 5 mg dose cohort): 1 (25%) | Adverse Event: Pneumonia ([3]; 5 mg dose cohort): 0 (0%) | Adverse Event: Toothache ([3]; 5 mg dose cohort): 0 (0%) | Number of subjects with ≧1 AE ([3]; 5 mg dose cohort): 1 (25%) | Adverse Event: Anemia ([3]; 10 mg dose cohort): 0 (0%) | Adverse Event: Congestive heart failure ([3]; 10 mg dose cohort): 0 (0%) | Adverse Event: Decreased ionized calcium ([3]; 10 mg dose cohort): 1 (33%) | Adverse Event: Gastro-esophageal reflux ([3]; 10 mg dose cohort): 0 (0%) | Adverse Event: Injection site pruritis ([3]; 10 mg dose cohort): 0 (0%) | Adverse Event: Paresthesias ([3]; 10 mg dose cohort): 0 (0%) | Adverse Event: Pneumonia ([3]; 10 mg dose cohort): 0 (0%) | Adverse Event: Toothache ([3]; 10 mg dose cohort): 0 (0%) | Number of subjects with ≧1 AE ([3]; 10 mg dose cohort): 1 (33%) | Adverse Event: Anemia ([3]; 20 mg dose cohort): 0 (0%) | Adverse Event: Congestive heart failure ([3]; 20 mg dose cohort): 0 (0%) | Adverse Event: Decreased ionized calcium ([3]; 20 mg dose cohort): 0 (0%) | Adverse Event: Gastro-esophageal reflux ([3]; 20 mg dose cohort): 0 (0%) | Adverse Event: Injection site pruritis ([3]; 20 mg dose cohort): 0 (0%) | Adverse Event: Paresthesias ([3]; 20 mg dose cohort): 0 (0%) | Adverse Event: Pneumonia ([3]; 20 mg dose cohort): 0 (0%) | Adverse Event: Toothache ([3]; 20 mg dose cohort): 1 (25%) | Number of subjects with ≧1 AE ([3]; 20 mg dose cohort): 1 (25%) | Adverse Event: Anemia ([3]; 40 mg dose cohort): 0 (0%) | Adverse Event: Congestive heart failure ([3]; 40 mg dose cohort): 0 (0%) | Adverse Event: Decreased ionized calcium ([3]; 40 mg dose cohort): 4 (100%) | Adverse Event: Gastro-esophageal reflux ([3]; 40 mg dose cohort): 0 (0%) | Adverse Event: Injection site pruritis ([3]; 40 mg dose cohort): 1 (25%) | Adverse Event: Paresthesias ([3]; 40 mg dose cohort): 1 (25%) | Adverse Event: Pneumonia ([3]; 40 mg dose cohort): 0 (0%) | Adverse Event: Toothache ([3]; 40 mg dose cohort): 0 (0%) | Number of subjects with ≧1 AE ([3]; 40 mg dose cohort): 4 (100%) | Adverse Event: Anemia ([3]; 60 mg dose cohort): 0 (0%) | Adverse Event: Congestive heart failure ([3]; 60 mg dose cohort): 0 (0%) | Adverse Event: Decreased ionized calcium ([3]; 60 mg dose cohort): 2 (50%) | Adverse Event: Gastro-esophageal reflux ([3]; 60 mg dose cohort): 0 (0%) | Adverse Event: Injection site pruritis ([3]; 60 mg dose cohort): 0 (0%) | Adverse Event: Paresthesias ([3]; 60 mg dose cohort): 0 (0%) | Adverse Event: Pneumonia ([3]; 60 mg dose cohort): 0 (0%) | Adverse Event: Toothache ([3]; 60 mg dose cohort): 0 (0%) | Number of subjects with ≧1 AE ([3]; 60 mg dose cohort): 2 (50%) | tolerability ([3]; single IV bolus 5-60 mg): very well-tolerated | reports of nausea, vomiting or diarrhea ([3]; single IV bolus 5-60 mg, 7 days after administration): no reports

SMILES: C[C@@H](NCCCc1cccc(C(F)(F)F)c1)c1cccc2ccccc12 [cinacalcet]
PTH levels (in words) ([4]; 6 hours after the last dosing): reduced | PTH levels (in words) ([4]; 16 hours after the last dosing): increased | PTH levels (in words) ([4]; 48 hours after the last dosing): increased
